Source: patent publication US20120101093A1, “SUBSTITUTED IMIDAZO[1,2-A]PYRIDINE DERIVATIVES, PHARMACEUTICAL COMPOSITIONS, AND METHODS OF USE AS BETA-SECRETASE INHIBITORS” (HIGH POINT PHARMACEUTICALS, LLC, priority 2009, published 2012)

Molecular target: T1, BACE-1 enzyme (Homo sapiens, UniProt P56817)
T1 construct: purchased R & D Systems 931AS
Test: BACE Fluorescence Resonance Energy Transfer (FRET) Assay
Assay type: biochemical
Conditions: pH 4-4.5, 30 min pre-incubation, about 1.5 hours reaction
Experimental: BACE Fluorescence Resonance Energy Transfer (FRET) Assay
In the following assay, the proteolytic activity of BACE is measured by observing cleavage of a fluorescent group from a peptide substrate containing a rhodamine fluorescent donor and a quenching acceptor.
The inhibitory activity of compounds of Formula (I) may be compared to a statine derived control inhibitor STA200 (MP Biomedical Cat. #STA-200). The cleavage reaction occurs when a BACE-1 substrate (Invitrogen, Cat. #P2986) was added to a reaction mixture containing BACE-1 enzyme (R & D Systems, Cat. #931AS) and allowed to proceed for about 1.5 hours. Fluorescence, used as a marker of BACE activity, is monitored using 540 nm excitation and 585 nm emission wavelengths (Envision, Perkin Elmer).
A typical assay reaction contains BACE-1 enzyme—in assay buffer (50 mM sodium acetate, pH 4-4.5, 0.01% CHAPS (3-[(3-Cholamidopropyl)dimethylammonio]-1-propanesulfonate), 0.0125% TritonX-100, 0.006% EDTA) which is pre-incubated for 30 minutes with test compound in 7.5% DMSO. The reaction is initiated with the addition of BACE-1 substrate in assay buffer and allowed to proceed for about 1.5 hours at room temperature. Assays are conducted in black 384-well microtiter plates and scanned at room temperature using 540 nm excitation and 585 nm emission wavelengths.
In some instances, the percent inhibition at a given concentration is reported instead of the IC50.

T1 sequence (P56817 46-457 limits assumed): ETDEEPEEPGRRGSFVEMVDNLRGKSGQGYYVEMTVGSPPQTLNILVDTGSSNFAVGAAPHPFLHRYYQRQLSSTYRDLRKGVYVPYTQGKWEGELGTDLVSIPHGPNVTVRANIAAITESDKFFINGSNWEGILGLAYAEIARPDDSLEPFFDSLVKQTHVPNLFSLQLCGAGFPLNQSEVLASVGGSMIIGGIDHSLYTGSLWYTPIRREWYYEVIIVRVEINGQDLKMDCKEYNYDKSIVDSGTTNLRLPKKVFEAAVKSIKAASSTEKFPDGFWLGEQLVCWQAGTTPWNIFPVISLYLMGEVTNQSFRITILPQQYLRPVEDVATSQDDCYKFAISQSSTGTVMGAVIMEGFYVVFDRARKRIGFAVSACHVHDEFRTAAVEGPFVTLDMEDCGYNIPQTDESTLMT

Compound	IC50
Cc1c(OCCO)ccc2nc(C(=O)Nc3nc4cc(-c5cccc(C(F)(F)F)c5)ccc4[nH]3)cn12 [Example 7, 6-(2-Hydroxy-ethoxy)-5-methyl-imidazo[1,2-a]pyridine-2-carboxylic acid [5-(3-trifluoromethyl-phenyl)-1H-benzoimidazol-2-yl]-amide]	0.1 µM
O=C(Nc1nc2cc(-c3cc(F)cc(Cl)c3)ccc2[nH]1)c1cn2c(N3CC[C@@H](O)C3)cccc2n1 [Example 8, 5-((R)-3-Hydroxy-pyrrolidin-1-yl)-imidazo[1,2-a]pyridine-2-carboxylic acid [5-(3-chloro-5-fluoro-phenyl)-1H-benzoimidazol-2-yl]-amide]	0.2 µM
O=C(Nc1nc2cc(OCc3ccc(Cl)cc3Cl)ccc2[nH]1)c1cn2cc(Cl)ccc2n1 [Example 15, 6-Chloro-imidazo[1,2-a]pyridine-2-carboxylic acid [5-(2,4-dichloro-benzyloxy)-1H-benzoimidazol-2-yl]-amide]	0.23 µM
O=C(Nc1nc2cc(OCc3ccc(C(F)(F)F)cc3)ccc2[nH]1)c1cn2ccccc2n1 [Example 17, Imidazo[1,2-a]pyridine-2-carboxylic acid [5-(4-trifluoromethyl-benzyloxy)-1H-benzoimidazol-2-yl]-amide]	0.12 µM
O=C(Nc1nc2cc(OCc3ccc(Cl)c(Cl)c3)ccc2[nH]1)c1cn2cc(Cl)ccc2n1 [Example 20, 6-Chloro-imidazo[1,2-a]pyridine-2-carboxylic acid [5-(3,4-dichloro-benzyloxy)-1H-benzoimidazol-2-yl]-amide]	0.25 µM
O=C(Nc1nc2cc(OCc3ccc(C(F)(F)F)cc3)ccc2[nH]1)c1cn2cc(Cl)ccc2n1 [Example 21, 6-Chloro-imidazo[1,2-a]pyridine-2-carboxylic acid [5-(4-trifluoromethyl-benzyloxy)-1H-benzoimidazol-2-yl]-amide]	0.14 µM
Cc1cccn2cc(C(=O)Nc3nc4cc(OCc5ccc(C(F)(F)F)cc5)ccc4[nH]3)nc12 [Example 22, 8-Methyl-imidazo[1,2-a]pyridine-2-carboxylic acid [5-(4-trifluoromethyl-benzyloxy)-1H-benzoimidazol-2-yl]-amide]	0.19 µM
Cc1cccc2nc(C(=O)Nc3nc4cc(OC5CCCC5)ccc4[nH]3)cn12 [Example 30, 5-Methyl-imidazo[1,2-a]pyridine-2-carboxylic acid (5-cyclopentyloxy-1H-benzoimidazol-2-yl)-amide]	4.15 µM
Cc1cccn2cc(C(=O)Nc3nc4cc(OC5CCCC5)ccc4[nH]3)nc12 [Example 31, 8-Methyl-imidazo[1,2-a]pyridine-2-carboxylic acid (5-cyclopentyloxy-1H-benzoimidazol-2-yl)-amide]	2.69 µM
Cc1cccc2nc(C(=O)Nc3nc4cc(N5CCC(c6ccccc6)CC5)ccc4[nH]3)cn12 [Example 36, 5-Methyl-imidazo[1,2-a]pyridine-2-carboxylic acid [5-(4-phenyl-piperidin-1-yl)-1H-benzoimidazol-2-yl]-amide]	1.46 µM
Cc1cccn2cc(C(=O)Nc3nc4cc(N5CCC(c6ccccc6)CC5)ccc4[nH]3)nc12 [Example 37, 8-Methyl-imidazo[1,2-a]pyridine-2-carboxylic acid [5-(4-phenyl-piperidin-1-yl)-1H-benzoimidazol-2-yl]-amide]	1.8 µM

Further compounds by falling IC50, results first:

IC50	Compound
3.14 µM	Cc1cccc2nc(C(=O)Nc3nc4cc(-c5ccncc5)ccc4[nH]3)cn12 [Example 38, 5-Methyl-imidazo[1,2-a]pyridine-2-carboxylic acid (5-pyridin-4-yl-1H-benzoimidazol-2-yl)-amide]
2.53 µM	O=C(Nc1nc2cc(-c3cccc(C(F)(F)F)c3)ccc2[nH]1)c1cn2cc(Cl)ccc2n1 [Example 34, 6-Chloro-imidazo[1,2-a]pyridine-2-carboxylic acid [5-(3-trifluoromethyl-phenyl)-1H-benzoimidazol-2-yl]-amide]
1.36 µM	Cc1cccn2cc(C(=O)Nc3nc4cc(OCc5ccc(OC(F)(F)F)cc5)ccc4[nH]3)nc12 [Example 33, 8-Methyl-imidazo[1,2-a]pyridine-2-carboxylic acid [5-(4-trifluoromethoxy-benzyloxy)-1H-benzoimidazol-2-yl]-amide]
1.29 µM	Cc1cccn2cc(C(=O)Nc3nc4cc(-c5ccccc5)ccc4[nH]3)nc12 [Example 29, 8-Methyl-imidazo[1,2-a]pyridine-2-carboxylic acid (5-phenyl-1H-benzoimidazol-2-yl)-amide]
0.51 µM	COc1cccc2nc(C(=O)Nc3nc4cc(-c5cccc(C(F)(F)F)c5)ccc4[nH]3)cn12 [Example 4, 5-Methoxy-imidazo[1,2-a]pyridine-2-carboxylic acid[5-(3-trifluoromethyl-phenyl)-1H-benzoimidazol-2-yl]-amide]
0.49 µM	Cc1c(N2CC[C@@H](O)C2)ccc2nc(C(=O)Nc3nc4cc(-c5cc(F)cc(Cl)c5)ccc4[nH]3)cn12 [Example 5, 6-((R)-3-Hydroxy-pyrrolidin-1-yl)-5-methyl-imidazo[1,2-a]pyridine-2-carboxylic acid [5-(3-chloro-5-fluoro-phenyl)-1H-benzoimidazol-2-yl]-amide]
0.3 µM	O=C(Nc1nc2cc(-c3cccc(Cl)c3)ccc2[nH]1)c1cn2cc(OCCO)ccc2n1 [Example 9, 6-(2-Hydroxy-ethoxy)-imidazo[1,2-a]pyridine-2-carboxylic acid [5-(3-chloro-phenyl)-1H-benzoimidazol-2-yl]-amide]
0.25 µM	Cc1c(C#CC(C)(C)O)ccc2nc(C(=O)Nc3nc4cc(-c5cccc(C(F)(F)F)c5)ccc4[nH]3)cn12 [Example 6, 6-(3-Hydroxy-3-methyl-but-1-ynyl)-5-methyl-imidazo[1,2-a]pyridine-2-carboxylic acid [5-(3-trifluoromethyl-phenyl)-1H-benzoimidazol-2-yl]-amide]
0.23 µM	O=C(Nc1nc2cc(OCc3cc(F)cc(Cl)c3)ccc2[nH]1)c1cn2cc(Cl)ccc2n1 [Example 19, 6-Chloro-imidazo[1,2-a]pyridine-2-carboxylic acid [5-(3-chloro-5-fluoro-benzyloxy)-1H-benzoimidazol-2-yl]-amide]
0.17 µM	O=C(Nc1nc2cc(OCc3cc(F)cc(F)c3)ccc2[nH]1)c1cn2cc(Cl)ccc2n1 [Example 16, 6-Chloro-imidazo[1,2-a]pyridine-2-carboxylic acid [5-(3,5-difluoro-benzyloxy)-1H-benzoimidazol-2-yl]-amide]
0.13 µM	O=C(Nc1nc2cc(OCc3ccc(F)cc3F)ccc2[nH]1)c1cn2cc(Cl)ccc2n1 [Example 24, 6-Chloro-imidazo[1,2-a]pyridine-2-carboxylic acid [5-(2,4-difluoro-benzyloxy)-1H-benzoimidazol-2-yl]-amide]
0.12 µM	Cc1cccn2cc(C(=O)Nc3nc4cc(OCc5ccccc5)ccc4[nH]3)nc12 [Example 14, 8-Methyl-imidazo[1,2-a]pyridine-2-carboxylic acid (5-benzyloxy-1H-benzoimidazol-2-yl)-amide]
0.1 µM	COc1cccc(-c2ccc3[nH]c(NC(=O)c4cn5c(C)cccc5n4)nc3c2)c1 [Example 25, 5-Methyl-imidazo[1,2-a]pyridine-2-carboxylic acid [5-(3-methoxy-phenyl)-1H-benzoimidazol-2-yl]-amide]
0.08 µM	O=C(Nc1nc2cc(OCc3ccccc3)ccc2[nH]1)c1cn2cc(Cl)ccc2n1 [Example 13, 6-Chloro-imidazo[1,2-a]pyridine-2-carboxylic acid (5-benzyloxy-1H-benzoimidazol-2-yl)-amide]
